Measurements from article PMC10797614, “MYC-Targeting Inhibitors Generated from a Stereodiversified Bicyclic Peptide Library” (Journal of the American Chemical Society, 2024).

Assay: tandem ring-opening/ring-closing metathesis (ROM-RCM) of side-chain norbornene with two Glu allyl esters to bicyclic peptide; Hoveyda-Grubbs 2nd gen (M720), two portions (library procedure)
Details: the molecule shown is the open-chain precursor, 1,2-dichloroethane, resin, 70.0 °C

C=CCOC(=O)CC[C@H](NC(=O)[C@H](CC(C)C)NC(=O)[C@H](C)NC(=O)[C@H](CCCCNC(=O)[C@@H]1C[C@H]2C=C[C@@H]1C2)NC(=O)[C@@H](NC(=O)[C@@H](NC(=O)[C@@H]1CCCN1C(=O)[C@H](Cc1ccccc1)NC(=O)[C@H](CCC(=O)OCC=C)NC(=O)OCC1c2ccccc2-c2ccccc21)[C@@H](C)CC)C(C)C)C(N)=O
ring closure, conversion by HPLC (% (semiquantitative, mass spectrometry)) (31-membered ring): 74

C=CCOC(=O)CC[C@H](NC(=O)[C@@H]1CCCN1C(=O)[C@H](CC(C)C)NC(=O)[C@H](C)NC(=O)[C@H](CCCCNC(=O)[C@H]1C[C@H]2C=C[C@@H]1C2)NC(=O)[C@@H](NC(=O)[C@@H](NC(=O)[C@H](Cc1ccccc1)NC(=O)[C@H](CCC(=O)OCC=C)NC(=O)OCC1c2ccccc2-c2ccccc21)[C@@H](C)CC)C(C)C)C(N)=O
ring closure, conversion by HPLC (% (semiquantitative, mass spectrometry)) (28-membered ring): 2

C=CCOC(=O)CC[C@H](NC(=O)[C@H](CC(C)C)NC(=O)[C@H](C)NC(=O)[C@@H]1CCCN1C(=O)[C@H](CCCCNC(=O)[C@H]1C[C@H]2C=C[C@@H]1C2)NC(=O)[C@@H](NC(=O)[C@@H](NC(=O)[C@H](Cc1ccccc1)NC(=O)[C@H](CCC(=O)OCC=C)NC(=O)OCC1c2ccccc2-c2ccccc21)[C@@H](C)CC)C(C)C)C(N)=O
ring closure, conversion by HPLC (% (semiquantitative, mass spectrometry)) (28-membered ring): 47

C=CCOC(=O)CC[C@H](NC(=O)[C@H](CC(C)C)NC(=O)[C@@H]1CCCN1C(=O)[C@H](C)NC(=O)[C@H](CCCCNC(=O)[C@H]1C[C@H]2C=C[C@@H]1C2)NC(=O)[C@@H](NC(=O)[C@@H](NC(=O)[C@H](Cc1ccccc1)NC(=O)[C@H](CCC(=O)OCC=C)NC(=O)OCC1c2ccccc2-c2ccccc21)[C@@H](C)CC)C(C)C)C(N)=O
ring closure, conversion by HPLC (% (semiquantitative, mass spectrometry)) (28-membered ring): 45

C=CCOC(=O)CC[C@H](NC(=O)[C@H](CC(C)C)NC(=O)[C@H](C)NC(=O)[C@H](CCCCNC(=O)[C@@H]1C[C@H]2C=C[C@@H]1C2)NC(=O)[C@@H](NC(=O)[C@@H](NC(=O)[C@H](Cc1ccccc1)NC(=O)[C@@H]1CCCN1C(=O)[C@H](CCC(=O)OCC=C)NC(=O)OCC1c2ccccc2-c2ccccc21)[C@@H](C)CC)C(C)C)C(N)=O
ring closure, conversion by HPLC (% (semiquantitative, mass spectrometry)) (31-membered ring): 22

C=CCOC(=O)CC[C@H](NC(=O)[C@H](CC(C)C)NC(=O)[C@H](C)NC(=O)[C@H](CCCCNC(=O)[C@@H]1C[C@H]2C=C[C@@H]1C2)NC(=O)[C@@H]1CCCN1C(=O)[C@@H](NC(=O)[C@@H](NC(=O)[C@H](Cc1ccccc1)NC(=O)[C@H](CCC(=O)OCC=C)NC(=O)OCC1c2ccccc2-c2ccccc21)[C@@H](C)CC)C(C)C)C(N)=O
ring closure, conversion by HPLC (% (semiquantitative, mass spectrometry)) (31-membered ring): 25

C=CCOC(=O)CC[C@H](NC(=O)[C@@H]1CCCN1C(=O)[C@H](CC(C)C)NC(=O)[C@H](C)NC(=O)[C@H](CCCCNC(=O)[C@@H]1C[C@H]2C=C[C@@H]1C2)NC(=O)[C@@H](NC(=O)[C@@H](NC(=O)[C@H](Cc1ccccc1)NC(=O)[C@H](CCC(=O)OCC=C)NC(=O)OCC1c2ccccc2-c2ccccc21)[C@@H](C)CC)C(C)C)C(N)=O
ring closure, conversion by HPLC (% (semiquantitative, mass spectrometry)) (28-membered ring): 2

C=CCOC(=O)CC[C@H](NC(=O)[C@H](CC(C)C)NC(=O)[C@H](C)NC(=O)[C@H](CCCCNC(=O)[C@@H]1C[C@H]2C=C[C@@H]1C2)NC(=O)[C@@H](NC(=O)[C@@H]1CCCN1C(=O)[C@@H](NC(=O)[C@H](Cc1ccccc1)NC(=O)[C@H](CCC(=O)OCC=C)NC(=O)OCC1c2ccccc2-c2ccccc21)[C@@H](C)CC)C(C)C)C(N)=O
ring closure, conversion by HPLC (% (semiquantitative, mass spectrometry)) (31-membered ring): 14

C=CCOC(=O)CC[C@H](NC(=O)[C@H](CC(C)C)NC(=O)[C@H](C)NC(=O)[C@H](CCCCNC(=O)[C@H]1C[C@H]2C=C[C@@H]1C2)NC(=O)[C@@H](NC(=O)[C@@H](NC(=O)[C@H](Cc1ccccc1)NC(=O)[C@@H]1CCCN1C(=O)[C@H](CCC(=O)OCC=C)NC(=O)OCC1c2ccccc2-c2ccccc21)[C@@H](C)CC)C(C)C)C(N)=O
ring closure, conversion by HPLC (% (semiquantitative, mass spectrometry)) (31-membered ring): 55

C=CCOC(=O)CC[C@H](NC(=O)[C@H](CC(C)C)NC(=O)[C@H](C)NC(=O)[C@H](CCCCNC(=O)[C@@H]1C[C@H]2C=C[C@@H]1C2)NC(=O)[C@@H](NC(=O)[C@@H](NC(=O)[C@H](Cc1ccccc1)NC(=O)[C@H](CCC(=O)OCC=C)NC(=O)OCC1c2ccccc2-c2ccccc21)[C@@H](C)CC)C(C)C)C(N)=O
ring closure, conversion by HPLC (% (semiquantitative, mass spectrometry)) (28-membered ring): 18

C=CCOC(=O)CC[C@H](NC(=O)[C@H](CC(C)C)NC(=O)[C@@H]1CCCN1C(=O)[C@H](C)NC(=O)[C@H](CCCCNC(=O)[C@@H]1C[C@H]2C=C[C@@H]1C2)NC(=O)[C@@H](NC(=O)[C@@H](NC(=O)[C@H](Cc1ccccc1)NC(=O)[C@H](CCC(=O)OCC=C)NC(=O)OCC1c2ccccc2-c2ccccc21)[C@@H](C)CC)C(C)C)C(N)=O
ring closure, conversion by HPLC (% (semiquantitative, mass spectrometry)) (28-membered ring): 10

C=CCOC(=O)CC[C@H](NC(=O)[C@H](CC(C)C)NC(=O)[C@H](C)NC(=O)[C@H](CCCCNC(=O)[C@H]1C[C@H]2C=C[C@@H]1C2)NC(=O)[C@@H](NC(=O)[C@@H](NC(=O)[C@@H]1CCCN1C(=O)[C@H](Cc1ccccc1)NC(=O)[C@H](CCC(=O)OCC=C)NC(=O)OCC1c2ccccc2-c2ccccc21)[C@@H](C)CC)C(C)C)C(N)=O
ring closure, conversion by HPLC (% (semiquantitative, mass spectrometry)) (31-membered ring): 79

C=CCOC(=O)CC[C@H](NC(=O)[C@H](CC(C)C)NC(=O)[C@H](C)NC(=O)[C@H](CCCCNC(=O)[C@H]1C[C@H]2C=C[C@@H]1C2)NC(=O)[C@@H](NC(=O)[C@@H](NC(=O)[C@H](Cc1ccccc1)NC(=O)[C@H](CCC(=O)OCC=C)NC(=O)OCC1c2ccccc2-c2ccccc21)[C@@H](C)CC)C(C)C)C(N)=O
ring closure, conversion by HPLC (% (semiquantitative, mass spectrometry)) (28-membered ring): 65

C=CCOC(=O)CC[C@H](NC(=O)[C@H](CC(C)C)NC(=O)[C@H](C)NC(=O)[C@H](CCCCNC(=O)[C@H]1C[C@H]2C=C[C@@H]1C2)NC(=O)[C@@H](NC(=O)[C@@H]1CCCN1C(=O)[C@@H](NC(=O)[C@H](Cc1ccccc1)NC(=O)[C@H](CCC(=O)OCC=C)NC(=O)OCC1c2ccccc2-c2ccccc21)[C@@H](C)CC)C(C)C)C(N)=O
ring closure, conversion by HPLC (% (semiquantitative, mass spectrometry)) (31-membered ring): 80

C=CCOC(=O)CC[C@H](NC(=O)[C@H](CC(C)C)NC(=O)[C@H](C)NC(=O)[C@H](CCCCNC(=O)[C@H]1C[C@H]2C=C[C@@H]1C2)NC(=O)[C@@H]1CCCN1C(=O)[C@@H](NC(=O)[C@@H](NC(=O)[C@H](Cc1ccccc1)NC(=O)[C@H](CCC(=O)OCC=C)NC(=O)OCC1c2ccccc2-c2ccccc21)[C@@H](C)CC)C(C)C)C(N)=O
ring closure, conversion by HPLC (% (semiquantitative, mass spectrometry)) (31-membered ring): 34

C=CCOC(=O)CC[C@H](NC(=O)[C@H](CC(C)C)NC(=O)[C@H](C)NC(=O)[C@@H]1CCCN1C(=O)[C@H](CCCCNC(=O)[C@@H]1C[C@H]2C=C[C@@H]1C2)NC(=O)[C@@H](NC(=O)[C@@H](NC(=O)[C@H](Cc1ccccc1)NC(=O)[C@H](CCC(=O)OCC=C)NC(=O)OCC1c2ccccc2-c2ccccc21)[C@@H](C)CC)C(C)C)C(N)=O
ring closure, conversion by HPLC (% (semiquantitative, mass spectrometry)) (28-membered ring): 14
